{"source": "patent US5215520A", "about": "“Method for delivering an active substance topically or percutaneously” (Centre Internationale de Recherches Dermatologiques …, priority 1991, dated 1993)", "key": {"[1]": {"details": "rat, in vivo", "method": "In these experiments, the levels of Thr-Lys-Pro peptide in urine following application of the peptide to the skin were measured.\nElectrodes (105, 106) (Ag/AgC1) were tightly fitted to the stoppers (103, 104) and became enclosed within the chambers (101 and 102) when the chambers were closed by replacing the stoppers. The distance between the bottom of the electrode after the stopper has been replaced and the bottom of the chamber is 0.3 cm. The skin surface contact area was 3.80 cm^2 and the axes of the chambers were 42 mm apart. The electrodes were connected to a source of electric current (E). To enable the various experiments to be performed, chambers (101 and 102) were fixed to the skin (S) using a cyanoacrylate glue. […]\nAfter 3 hours the electrodes were removed and the skin washed carefully with deionized water, then dried and stripped 5 times with adhesive tape (3M Co., St. Paul, Minn., U.S.A) and the strips discarded. […] The urine passed in the 24-hour period was collected and counted for radioactivity.\nIn the method of the invention, the skin was first subjected to 3 hours of electric current as in conventional iontophoresis, except that chamber 101 contained the gel of example 1 without peptide. […] The rats were then left as described previously in their metabolic cages for 24 hours and urine collected and measured for radioactivity. […]"}, "[2]": {"experiment": "Pharmacokinetic profile: blood and urine levels after single intravenous injection", "format": "in vivo, hairless female rats", "description": "Prior to the in vivo experiments, a study was carried out to determine whether the levels of peptide in urine were significant. To this end, following a single intravenous injection of Thr-Lys-Pro, its levels in blood and urine were measured. This was carried out by an injection of 0.5 cm^3 of an aqueous solution containing 2 nmol/cm^3 of non-radiolabelled peptide and 5 μCi/cm^3 of radiolabelled peptide via the tail vein of five hairless female rats (198±12 g). The rats had been anaesthetised by an intraperitoneal injection of pentobarbital sodium (40 mg/kg). The rats were left in metabolic cages and blood samples were taken at 10, 15, 30 minutes and 1, 2, 3 and 24 hours following the peptide injection. Blood was removed from the retro-orbital sinus of the eye socket by capillary tube. The samples were weighed into a crucible (ashless paper) and allowed to dry overnight. The blood was then oxidized using a tri-carb oxidizer (model 306 sold by Packard Instrument Co. Inc.) and measured for radioactivity. Urine was collected from the cage after 24 hours and also measured for radioactivity."}}}
{"substance": "Thr-Lys-Pro", "values": [{"measurement": "systemic absorption of peptide (total quantity in urine) vs passive method without current", "setting": "[1]", "result": "greater systemic absorption of peptides than the passive method without application of current"}, {"measurement": "quantity of peptide present in urine", "setting": "[2]; 24 hours after the intravenous injection, radioactivity", "result": "63.6±8 % of the injected dose"}, {"measurement": "quantity of peptide in the blood", "setting": "[2]; single intravenous injection, blood sampled 10 minutes to 24 hours", "result": "not detectable"}]}
